From PMC12664080, “Tetrazole-containing naphthalene bis-sulfonamide Keap1-Nrf2 interaction inhibitors with unexpected binding modes” (Redox Biology, 2025)
Several values for one entry are separate records, joined by “and”; a condition that tells them apart may be missing. Equal entries are not always repeated. Where two headings read alike, the source gives them in different places.

Assays:
Keap1 Kelch domain = target: T1, Keap1 Kelch domain (Homo sapiens, UniProt Q14145); experiment: Isothermal titration calorimetry (ITC); type: binding
T1 construct: made in house
T1 sequence (Q14145 322-609): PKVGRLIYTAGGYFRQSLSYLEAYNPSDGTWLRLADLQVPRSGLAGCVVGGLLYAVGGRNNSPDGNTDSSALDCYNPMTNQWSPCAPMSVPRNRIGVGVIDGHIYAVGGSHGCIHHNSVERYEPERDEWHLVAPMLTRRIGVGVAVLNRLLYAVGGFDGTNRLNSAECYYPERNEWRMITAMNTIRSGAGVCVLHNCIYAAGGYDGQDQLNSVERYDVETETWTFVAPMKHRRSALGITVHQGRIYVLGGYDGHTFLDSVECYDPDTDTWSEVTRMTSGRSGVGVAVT
Experimental: The measurements were performed as described previously. The small molecule inhibitor at 500 μM was titrated over 30 injections against 50 μM protein in buffer containing 25 mM HEPES (pH 7.4), 200 mM NaCl and 5 % DMSO. ITC experiments were performed using a MicroCal PEAQ-ITC instrument (Malvern Instruments, UK) at 25 °C with a stirring speed of 750 rpm. The first injection volume was of 0.3 μL followed by 29 injections of 1.3 μL and a gap of 120 s between each injection. Data analyses were performed as previously described. Each small molecule ITC measurement was performed in duplicate and resultant values obtained were averaged after independent analysis.

[1] = 1D 1H NMR lineshape analysis of cis/trans rotamer exchange
Experimental: Exchange was quantified using a two-site exchange model [40] implemented in Julia, where resonances were fitted to calculate chemical shifts of the two states and the exchange rates kAB and kBA between them. […] Reported uncertainties were determined from the standard errors of the fits.

[2] = EXSY NMR of cis/trans rotamer exchange; type: physicochemical
Description: A series of pseudo-3D EXSY spectra were then acquired for compound 25 in D2O at temperatures of 280, 290, 300, 310 and 320 K (700 MHz, pulse sequence adapted from noesygpphpr and available on request, 1 s recycle delay, 13 mixing times from 5 to 1000 ms, acquisition times of 367 ms and 52 ms and spectra widths of 16 ppm and 3.5 ppm for direct and indirect dimensions respectively). Spectra were processed with linear prediction and cosine-squared window functions. For each temperature, methoxy singlet resonances were selected for analysis, and the intensities of the diagonal ( IAA and IBB ) and cross peaks ( IAB and IBA ) were fitted to Eq. (1) as a function of the mixing time, T, to determine the exchange rates kAB and kBA [41]. The ‘A’ state was defined to be the more shielded signal. Reported uncertainties were obtained from the non-linear fitting procedure.(1) (IAAIABIBAIBB)(T)=exp[(−R1,A−kABkBAkAB−R1,B−kBA)T]·(IA000IB0)
Exchange rates kAB and kBA were used to determine the relative populations pA=kBA/kAB+kBA and pB=kAB/kAB+kBA and were fitted to van't Hoff and Eyring equations (with unit transmission coefficient) to estimate the enthalpy and entropy changes and enthalpy and entropy of activation.

Nrf2 = experiment: Immunoblotting of Nrf2 and HO-1 in Hepa1c1c7 cells; type: cell-based, mouse; details: 6-h incubation, 10 μM or 50 μM
Experimental: Hepa1c1c7 cells (5 × 10^5 cells/well, n = 3) were seeded on six-well plates, and on the next day were treated with compound 25 (10 μM or 50 μM) or vehicle (0.1 % DMSO) for 6 h. Cells were washed twice in PBS, and lysed in 200 μL of SDS lysis buffer containing 2 % SDS, 62.5 mM Tris-HCl pH 6.8 and 10 % glycerol. The cell lysates were boiled for 3 min, sonicated for 25 s (25 %, 4 s on, 1 s off), supplemented with DTT up to 0.1 M and Bromophenol Blue, and snap-frozen. The lysates were thawed, and 20 μg of total protein was separated on a pre-cast NuPage gel under MOPS buffer, transferred onto nitrocellulose membrane and blotted with anti-Nrf2 (Cell Signaling Technology, clone D1Z9C, 1:1000 dilution), anti-HO1 (Abcam, ab13243, 1:2000 dilution) or anti-alpha tubulin (Abcam, clone EP1332Y, 1:5000 dilution) in 5 % milk in PBS with 0.1 % Tween, followed by appropriate secondary antibodies (LiCor BioSciences, 1:15000 dilutuon) and scanned using Odyssey CLx Imaging System.

[3] = D2O PBS buffer, pH* ~7.4, lineshape

Kd (Keap1 Kelch domain; 25 °C, read-out: ITC Kd): < 1 nM
Kd (Keap1 Kelch domain; from ITC and MST data, read-out: Kd value for Keap1 Kelch domain (overall, lower limit of detection)): ≤ 1 nM
Occupancy of the more shielded state (A) ([1]; D2O PBS buffer (pH* ~7.4), 300 K): 0.606 ±0.003
Occupancy of the more shielded state (A) ([1]; D2O PBS buffer (pH* ~7.4), 310 K): 0.586 ±0.001
Occupancy of the more shielded state (A) ([1]; D2O PBS buffer (pH* ~7.4), 320 K): 0.567 ±0.001
ΔHAB [1, 3]: 6.532 ± 0.022 kJ/mol
ΔH^‡AB [1, 3]: 73.0 ± 2.3 kJ/mol
ΔSAB [1, 3]: 18.19 ± 0.07
ΔS^‡AB [1, 3]: 0.65 ± 7.2
Occupancy of the more shielded state (A) ([1]; DMSO, 300 K): 0.486 ±0.003
Occupancy of the more shielded state (A) ([1]; DMSO, 310 K): 0.491 ±0.001
Occupancy of the more shielded state (A) ([1]; DMSO, 320 K): 0.496 ±0.0005
ΔH^‡AB ([1]; DMSO, lineshape, Eyring): 48.0 ± 13.0 kJ/mol
ΔS^‡AB ([1]; DMSO, lineshape, Eyring): -79 ± 41
ΔSAB ([1]; DMSO, lineshape, van't Hoff): -5.26 ± 0.17
ΔHAB ([2]; D2O PBS buffer, pH* ~7.4, EXSY): 6.0 ± 1.3 kJ/mol
ΔH^‡AB ([2]; D2O PBS buffer, pH* ~7.4, EXSY): 69.3 ± 0.9 kJ/mol
ΔSAB ([2]; D2O PBS buffer, pH* ~7.4, EXSY): 16.8 ± 4.4 J/(K·mol)
ΔS^‡AB ([2]; D2O PBS buffer, pH* ~7.4, EXSY): -11.3 ± 3 J/(K·mol)
ΔS^‡AB ([2]; D2O, EXSY, Eyring (Fig. 4D)): −11.3 ± 3.0 J K^−1 mol^−1
ΔSAB ([2]; D2O, EXSY, van 't Hoff (Fig. 4C)): 16.8 ± 4.4 J K^−1 mol^−1
Compound: COc1ccc(S(=O)(=O)N(CC(=O)O)c2ccc(N(Cc3nnn[nH]3)S(=O)(=O)c3ccc(OC)cc3)c3ccccc23)cc1 [Compound 25, N-(4-((N-((1H-tetrazol-5-yl)methyl)-4-methoxyphenyl)sulfonamido)naphthalen-1-yl)-N-((4-methoxyphenyl)sulfonyl)glycine]
kA→B ([1]; D2O PBS buffer, 300 K, lineshape): 1.432 s^-1 and 1.432 ±0.015^c s^-1
kA→B ([1]; D2O PBS buffer, 310 K, lineshape): 3.488 ±0.014^c s^-1
kA→B ([1]; D2O PBS buffer, 320 K, lineshape): 8.912 ±0.024^c s^-1
kA→B ([1]; DMSO, 300 K, lineshape): 3.059 ± 0.029 s⁻¹
kA→B ([1]; DMSO, 310 K, lineshape): 3.982 ± 0.007 s⁻¹
kA→B ([1]; DMSO, 320 K, lineshape): 8.749 ± 0.012 s⁻¹
kA→B ([2]; D2O PBS buffer, 280 K, EXSY): 0.1633 ± 0.0072 s⁻¹
kA→B ([2]; D2O PBS buffer, 290 K, EXSY): 0.541 ± 0.013 s⁻¹
kA→B ([2]; D2O PBS buffer, 300 K, EXSY): 1.432 s⁻¹ and 1.432 ± 0.033 s⁻¹
kA→B ([2]; D2O PBS buffer, 310 K, EXSY): 3.26 ± 0.11 s⁻¹
kA→B ([2]; D2O PBS buffer, 320 K, EXSY): 8.78 ± 0.39 s⁻¹
protein levels of Nrf2 (Nrf2): increased
protein levels of heme oxygenase 1 (HO-1) (Nrf2): increased
